Drawing on patent US8829034B2, “Compounds which modulate the CB2 receptor” (Boehringer Ingerlheim International GmbH, priority 2006, dated 2014), this text covers EC50 and agonistic activity for 30 compounds.

This assay deals with T1, human CB2R (Homo sapiens, UniProt P34972).
T1 construct: host or cells: CHO cells
Description: CB2R mediated modulation of cAMP synthesis. The assay is classed as cell-based. As to conditions: for agonistic activity: found through the use of the above described assays. The essentials: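 CHO cells expressing human CB2R were treated with compound for 30 min at 37 °C in buffer containing 1 mM IBMX, 0.25% BSA and 10 uM forskolin. cAMP was measured after lysis. EC50 was taken as 50% inhibition of forskolin-stimulated cAMP, with 100% defined by 1 uM CP55940, using a four-parameter logistic fit.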

T1 sequence (P34972 whole entry): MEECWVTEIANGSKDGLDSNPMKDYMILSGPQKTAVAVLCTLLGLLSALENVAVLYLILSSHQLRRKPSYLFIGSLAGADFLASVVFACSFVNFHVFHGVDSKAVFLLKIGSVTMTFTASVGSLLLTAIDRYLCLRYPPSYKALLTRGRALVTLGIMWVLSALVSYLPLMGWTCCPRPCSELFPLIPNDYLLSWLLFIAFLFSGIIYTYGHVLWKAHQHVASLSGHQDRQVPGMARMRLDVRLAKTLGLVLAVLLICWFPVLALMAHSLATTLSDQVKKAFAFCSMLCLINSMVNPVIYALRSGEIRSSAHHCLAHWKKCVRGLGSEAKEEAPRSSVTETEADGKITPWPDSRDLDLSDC

For `CC(C)(C)c1cc(NC(=O)C(C)(C)S(=O)(=O)CC2CCC2)no1` [N-(5-tert-Butyl-isoxazol-3-yl)-2-cyclobutylmethanesulfonyl-2-methyl-propionamide], a half-maximal response (EC50) required 3.4 nM and the agonistic activity entry is “agonistic activity”.

For the compound `Cn1nc(C(C)(C)C)cc1NC(=O)C(C)(C)S(=O)(=O)CC1CCCCC1` [N-(5-tert-Butyl-2-methyl-2H-pyrazol-3-yl)-2-cyclohexylmethanesulfonyl-2-methyl-propionamide], the EC50 is 23.8 nM and the agonistic activity entry was “agonistic activity”.

As to `CC(C)(C(=O)Nc1ccc(C(F)(F)F)cn1)S(=O)(=O)C1CCCC1` [2-Cyclopentanesulfonyl-2-methyl-N-(5-trifluoromethyl-pyridin-2-yl)-propionamide], the agonistic activity result is “agonistic activity”.

On to `CC(C)S(=O)(=O)C(C)(C)C(=O)Nc1nc(-c2ccncc2)cs1` [2-Methyl-2-(propane-2-sulfonyl)-N-(4-pyridin-4-yl-thiazol-2-yl)-propionamide], for which the agonistic activity entry is “agonistic activity”.

In the case of `CC(C)(C(=O)Nc1ccc(C(F)(F)F)cn1)S(=O)(=O)CC1CCC1` [2-Cyclobutylmethanesulfonyl-2-methyl-N-(5-trifluoromethyl-pyridin-2-yl)-propionamide], the agonistic activity result was “agonistic activity”.

`CC(C)S(=O)(=O)C(C)(C)C(=O)Nc1cc(C(C)(C)C)no1` [N-(3-tert-Butyl-isoxazol-5-yl)-2-methyl-2-(propane-2-sulfonyl)-propionamide]: the agonistic activity result is “agonistic activity”.

With `CC(C)(C)c1cc(NC(=O)C(C)(C)S(=O)(=O)C2CCCC2)on1` [N-(3-tert-Butyl-isoxazol-5-yl)-2-cyclopentanesulfonyl-2-methyl-propionamide], the EC50 was 0.9 nM and the agonistic activity entry was “agonistic activity”.

With `CCCS(=O)(=O)C(C)(C)C(=O)Nc1cc(C(C)(C)C)on1` [N-(5-tert-Butyl-isoxazol-3-yl)-2-methyl-2-(propane-1-sulfonyl)-propionamide], a half-maximal response (EC50) required 61.9 nM and the agonistic activity result is recorded as “agonistic activity”.

For the compound `Cn1nc(C(C)(C)C)cc1NC(=O)C(C)(C)S(C)(=O)=O` [N-(5-tert-Butyl-2-methyl-2H-pyrazol-3-yl)-2-methanesulfonyl-2-methyl-propionamide], the agonistic activity entry was “agonistic activity”.

For the compound `CCS(=O)(=O)C(C)(C)C(=O)Nc1cc(C(C)(C)C)on1` [N-(5-tert-Butyl-isoxazol-3-yl)-2-ethanesulfonyl-2-methyl-propionamide], the agonistic activity entry is recorded as “agonistic activity”.

As for `CC(C)(C(=O)Nc1nc(-c2ccncc2)cs1)S(=O)(=O)CC1CCOCC1` [2-Methyl-N-(4-pyridin-4-yl-thiazol-2-yl)-2-(tetrahydro-pyran-4-ylmethanesulfonyl)-propionamide], the agonistic activity entry was “agonistic activity”.

As for `CC(C)(C(=O)Nc1cccc(C(F)(F)F)n1)S(=O)(=O)CC1CCOCC1` [2-Methyl-2-(tetrahydro-pyran-4-ylmethanesulfonyl)-N-(6-trifluoromethyl-pyridin-2-yl)-propionamide], the agonistic activity result is reported as “agonistic activity”.

For `CC(C)S(=O)(=O)C(C)(C)C(=O)Nc1nc(C(C)(C)C)cs1` [N-(4-tert-Butyl-thiazol-2-yl)-2-methyl-2-(propane-2-sulfonyl)-propionamide], the agonistic activity entry is listed as “agonistic activity”.

Take `CCc1sc(NC(=O)C(C)(C)S(=O)(=O)CC2CCOCC2)nc1-c1ccccc1` [N-(5-Ethyl-4-phenyl-thiazol-2-yl)-2-methyl-2-(tetrahydro-pyran-4-ylmethanesulfonyl)-propionamide]: a half-maximal effect (EC50) was put at 2 nM and the agonistic activity entry is recorded as “agonistic activity”.

As to `CC(C)(C)c1cc(NC(=O)C(C)(C)S(=O)(=O)CC2CCCCC2)no1` [N-(5-tert-Butyl-isoxazol-3-yl)-2-cyclohexylmethanesulfonyl-2-methyl-propionamide], a half-maximal effect (EC50) was put at 0.6 nM and the agonistic activity entry is listed as “agonistic activity”.

Consider `CCCS(=O)(=O)C(C)(C)C(=O)Nc1ccc(C(C)(C)C)cc1` [N-(4-tert-Butyl-phenyl)-2-methyl-2-(propane-1-sulfonyl)-propionamide], for which the EC50 was 12.3 nM and the agonistic activity result is given as “agonistic activity”.

Consider `CC(C)(C)c1cc(NC(=O)C(C)(C)S(=O)(=O)CC2CCOCC2)no1` [N-(5-tert-Butyl-isoxazol-3-yl)-2-methyl-2-(tetrahydro-pyran-4-ylmethanesulfonyl)-propionamide], for which the agonistic activity result is recorded as “agonistic activity”.

With `CCCS(=O)(=O)C(C)(C)C(=O)Nc1cc(C(C)(C)C)no1` [N-(3-tert-Butyl-isoxazol-5-yl)-2-methyl-2-(propane-1-sulfonyl)-propionamide], the concentration for a half-maximal effect (EC50) was found to be 89.7 nM and the agonistic activity entry is given as “agonistic activity”.

Turning to `CC(C)C(C(=O)Nc1nc(C(C)(C)C)cs1)S(=O)(=O)C(C)C` (stereo not shown) [N-(4-tert-Butyl-thiazol-2-yl)-3-methyl-2-(propane-2-sulfonyl)-butyramide], the agonistic activity result is recorded as “agonistic activity”.

Consider `CC(C)(C)c1cc(NC(=O)C(C)(C)S(=O)(=O)C2CCCCC2)on1` [N-(3-tert-Butyl-isoxazol-5-yl)-2-cyclohexanesulfonyl-2-methyl-propionamide], for which the agonistic activity result is recorded as “agonistic activity”.

Regarding `CC(C)(C)c1cc(NC(=O)C(C)(C)S(=O)(=O)CC2CCNCC2)no1` [N-(5-tert-Butyl-isoxazol-3-yl)-2-methyl-2-(piperidin-4-ylmethanesulfonyl)-propionamide], the agonistic activity entry is recorded as “agonistic activity”.

In the case of `CC(C)(C)c1csc(NC(=O)C(C)(C)S(=O)(=O)C(C)(C)C)n1` [N-(4-tert-Butyl-thiazol-2-yl)-2-methyl-2-(2-methyl-propane-2-sulfonyl)-propionamide], the concentration for a half-maximal effect (EC50) was 61.1 nM and the agonistic activity entry is “agonistic activity”.

As to `CC(C)(C(=O)Nc1nc(-c2ccc(Cl)cc2)cs1)S(=O)(=O)CC1CCOCC1` [N-[4-(4-Chloro-phenyl)-thiazol-2-yl]-2-methyl-2-(tetrahydro-pyran-4-ylmethanesulfonyl)-propionamide], the EC50 was determined as 2.2 nM and the agonistic activity entry was “agonistic activity”.

Regarding `CC(C)(C)c1cc(NC(=O)C(C)(C)S(=O)(=O)CC2CCCCO2)on1` (stereo not shown) [N-(3-tert-Butyl-isoxazol-5-yl)-2-methyl-2-(tetrahydro-pyran-2-ylmethanesulfonyl)-propionamide], the EC50 stood at 0.2 nM and the agonistic activity entry was “agonistic activity”.

As to `CC(C)(C)c1nnc(NC(=O)C(C)(C)S(=O)(=O)CC2CCOCC2)s1` [N-(5-tert-Butyl-[1,3,4]thiadiazol-2-yl)-2-methyl-2-(tetrahydro-pyran-4-ylmethanesulfonyl)-propionamide], the agonistic activity entry is recorded as “agonistic activity”.

In the case of `CCC(C)S(=O)(=O)C(C)(C)C(=O)Nc1ccc(C(F)(F)F)cn1` (stereo not shown) [2-(Butane-2-sulfonyl)-2-methyl-N-(5-trifluoromethyl-pyridin-2-yl)-propionamide], the agonistic activity result is on record as “agonistic activity”.

With `CC(C)S(=O)(=O)C(C)(C)C(=O)Nc1cc(C(C)(C)C)nn1C` [N-(5-tert-Butyl-2-methyl-2H-pyrazol-3-yl)-2-methyl-2-(propane-2-sulfonyl)-propionamide], the agonistic activity result is recorded as “agonistic activity”.

Take `CC(C)(C(=O)Nc1nnc(-c2ccccc2)[nH]1)S(=O)(=O)C1CCCC1` [2-Cyclopentanesulfonyl-2-methyl-N-(5-phenyl-4H-1,2,4-triazol-3-yl)-propionamide]: the EC50 is 3.8 nM and the agonistic activity entry is “agonistic activity”.

For `CC(C)(C(=O)Nc1nc2ccccc2s1)S(=O)(=O)CC1CCOCC1` [N-Benzothiazol-2-yl-2-methyl-2-(tetrahydro-pyran-4-ylmethanesulfonyl)-propionamide], a half-maximal effect (EC50) was put at 27.9 nM and the agonistic activity entry is reported as “agonistic activity”.

Take `CCc1ccnc(NC(=O)C(C)(C)S(=O)(=O)CC2CCOCC2)c1` [N-(4-Ethyl-pyridin-2-yl)-2-methyl-2-(tetrahydro-pyran-4-ylmethanesulfonyl)-propionamide]: the agonistic activity result is “agonistic activity”.

By EC50 is commonly meant the concentration at which the effect is half-maximal. Higher therefore signals a less potent agent.
